Data on two molecules can be found in US8338482B2, “Modulating notch1 signaling pathway for treating neuroendocrine tumors” (Wisconsin Alumni Research Foundation, priority 2007, dated 2012).

In one assay the test system is Hedgehog pathway. The conditions noted are these: murine models; cited from earlier work.
The test system of the next assay is Hedgehog signaling. The conditions noted are these: 50 mg/kg/d i.p.
Assay [1] relates to BON human GI carcinoid cancer cells. In words: MTT cell proliferation assay, GI carcinoid cells. It is filed as cell-based. The text has this: (§1) Cell Culture BON human GI carcinoid cancer cells, kindly provided by Drs. B. Mark Evers and Courtney M. Townsend, Jr. (University of Texas Medical Branch, Galveston, Tex., USA), and H727 human lung carcinoid cancer cells (American Type Tissue Collection, Manassas, Va., USA) were maintained as previously described (Sippel, R S et al., Raf-1 Activation Suppresses neuroendocrine marker and hormone levels in human gastrointestinal carcinoid cells. Am J Physiol Gastrointest Liver Physiol. 2003 August; 285(2):G245-54, Van Gompel J J et al., ZM336372, A Raf-1 Activator, Suppresses Growth and Neuroendocrine Hormone Levels in Carcinoid Tumor Cells. Mol Cancer Ther. 2005 June; 4(6):910-7)
(§2) Cell Proliferation Assay Carcinoid cancer cell proliferation was measured by the MTT (thiazolyl blue tetrazolium bromide; Sigma-Aldrich, St. Louis, Mo., USA) rapid calorimetric assay as previously described (Van Gompel J J et al., ZM336372, A Raf-1 Activator, Suppresses Growth and Neuroendocrine Hormone Levels in Carcinoid Tumor Cells. Mol Cancer Ther. 2005 June; 4(6):910-7). Briefly, cells were seeded in quadruplicate on 24-well plates and incubated for 24 hours to allow cell attachment. The cells were then treated with SBHA (Sigma-Aldrich) in concentrations of 0 to 50 μM and incubated for up to 6 days. The MTT assay was performed by replacing the standard medium with 250 μL of serum-free medium containing MTT (0.5 mg/mL) and incubated at 37° C. for 3 hours. After incubation, 750 μL of dimethyl sulfoxide (Sigma-Aldrich) was added to each well and mixed thoroughly. The plates were then measured at 540 nm using a spectrophotometer (μQuant; Bio-Tek Instruments, Winooski, Vt., USA).
Cell Culture BON human gastrointestinal (GI) carcinoid tumor cells, kindly provided by Drs. B. Mark Evers and Courtney M. Townsend, Jr. […]
(§3) Cell Proliferation Assay Carcinoid tumor cell proliferation was measured by the MTT (methylthiazolyldiphenyl-tetrazolium bromide; Sigma-Aldrich, St. Louis, Mo.) rapid colorimetric assay as previously described (Van Gompel J J et al., ZM336372, A Raf-1 Activator, Suppresses Growth and Neuroendocrine Hormone Levels in Carcinoid Tumor Cells. Mol Cancer Ther 2005; 4:910-917). […] The plates were then measured at 540 nm using a spectrophotometer (μQuant; Bio-Tek Instruments, Winooski, Vt.).
On the technique in general: Tetrazolium dyes change colour on reduction, which living cells bring about.

Assay [2] has the same test system. In words: Western blot analysis of GI carcinoid cells. The assay is classed as cell-based. Conditions: 48 hours. The procedure: Cell Culture BON human GI carcinoid cancer cells, kindly provided by Drs. B. Mark Evers and Courtney M. Townsend, Jr.
Total protein concentrations were quantified with a bicinchoninic acid assay kit (Pierce Biotechnology, Rockford, Ill., USA). Denatured cellular extracts were resolved by SDS-PAGE, transferred to nitrocellulose membranes (Schleicher and Schuell, Keene, N.H., USA), blocked in milk, and incubated with appropriate antibodies. The antibody dilutions were: 1:1,000 for Notch1 (Santa Cruz Biotechnology, Santa Cruz, Calif., USA), mammalian achaete-scute homolog 1 (ASCL1; BD Biosciences, San Diego, Calif., USA), chromogranin A (Zymed Laboratories, San Francisco, Calif., USA), and cyclin D1 (Cell Signaling Technology, Danvers, Mass., USA), 1:2,000 for p21 (Cell Signaling Technology) and p27 (Santa Cruz Biotechnology), and 1:10,000 for glyceraldehyde-3-phosphate dehydrogenase (G3PDH; Trevigen, Gaithersburg, Md., USA). Horseradish peroxidase conjugated goat anti-rabbit or goat anti-mouse secondary antibodies (Pierce Biotechnology) were used depending on the source of the primary antibody. For visualization of the protein signal, Immunstar (Bio-Rad Laboratories, Hercules, Calif., USA) or SuperSignal West Femto (Pierce Biotechnology) kits were used per the manufacturer's instructions.
Cell Culture BON human gastrointestinal (GI) carcinoid tumor cells, kindly provided by Drs. B. Mark Evers and Courtney M. Townsend, Jr.
Total protein concentrations were quantified with a bicinchoninic acid assay kit (Pierce Biotechnology, Rockford, Ill.). Denatured cellular extracts were resolved by SDS-PAGE, transferred onto nitrocellulose membranes (Schleicher and Schuell, Keene, N H), blocked in milk, and incubated with appropriate antibodies. The antibody dilutions were: 1:1,000 for Notch1 (Santa Cruz Biotechnology, Santa Cruz, Calif.), mammalian achaete-scute homolog 1 (ASCL1; BD Biosciences, San Diego, Calif.), chromogranin A (Zymed Laboratories, San Francisco, Calif.), and cyclin D1 (Cell Signaling Technology, Danvers, Mass.), 1:2,000 for p21 (Cell Signaling Technology) and p27 (Santa Cruz Biotechnology), and 1:10,000 for glyceraldehyde-3-phosphate dehydrogenase (G3PDH; Trevigen, Gaithersburg, Md.). Horseradish peroxidase conjugated goat anti-rabbit or goat anti-mouse secondary antibodies (Pierce Biotechnology) were used depending on the source of the primary antibody. For visualization of the protein signal, Immunstar (Bio-Rad Laboratories, Hercules, Calif.) or SuperSignal West Femto (Pierce Biotechnology) kits were used per the manufacturer's instructions.
(In general: A western blot detects proteins with antibodies after separation by electrophoresis.)

For assay [3], the system named is Human MTC TT cells. In words: MTT cell viability assay, medullary thyroid cancer cells. Conditions: concentrations up to 25 μM. The assay is classed as cell-based. As to the method: (§4) Human MTC TT cells were treated with SBHA in concentrations up to 25 μM and analyzed by Western blotting for evidence of Notch1 pathway activation and changes in neuroendocrine markers. MTT assay was used to measure cell viability. Finally mechanism of growth inhibition was analyzed by Western blotting.

The subject of assay [4] is H727 human lung carcinoid cancer cells. In words: MTT cell proliferation assay, pulmonary carcinoid cells. It is filed as cell-based. Conditions: up to 6 days.
Text: as §1
as §2, with “After incubation, 750 μL of dimethyl sulfoxide (Sigma-Aldrich) was added to each well and mixed thoroughly.” left out, “USA). […]” for “USA).”
as §3

The test system is the same in assay [5]. In words: Western blot analysis of pulmonary carcinoid cells. The assay is classed as cell-based. Conditions: SBHA, 48 hours.
For assay [6], the system named is Human MTC TT cells. In words: Western blotting of medullary thyroid cancer cells. It is filed as cell-based. Conditions: concentrations up to 25 μM. As to the method:
as §4

Text for Hedgehog signaling: Sixty nude mice undergo intrasplenic injection of NE tumor cells as described above. […] Treatment continues for 8 weeks.
2) Interval assessment of tumor burden. All animals undergo microCT scanning every week for 8 weeks as described above. Blood is sampled weekly for measurement of serotonin or calcitonin levels.
3) Measurement of Hedgehog signaling inhibition. […] The liver lesions from animals sacrificed at 2 weeks intervals (n=3 per group) are microdissected from normal liver and total RNA extracted. Tumors in cycloamine treated mice are analyzed for downregulation of Gli1 expression by real-time PCR when compared to control animals.

Regarding `CC1=C2C[C@H]3[C@@H](CC=C4C[C@@H](O)CC[C@@]43C)[C@@H]2CC[C@]12O[C@@H]1C[C@H](C)CN[C@H]1[C@H]2C` [Cyclopamine], in the assay with Hedgehog pathway, the Hedgehog signaling entry is reported as “completely blocked” and the “tumors dependent on Hedgehog signaling” value was “caused regression”. The “Hedgehog signaling within the NE tumor cells” value in the assay on Hedgehog signaling was “confirmed to inhibit”.

As to `O=C(CCCCCCC(=O)NO)NO` [SBHA, suberic bishydroxamic acid], the cell proliferation result in assay [1] (SBHA 0 to 50 μM, up to 6 days) is “profound dose-dependent inhibition”. Further, in assay [1] (after 4 days of exposure), the “concentration giving significant growth inhibition” value was determined as 5 µM. In addition, the “concentration resulting in induction of full-length Notch1 and Notch1 intracellular domain (NICD)” value in assay [2] (concentrations as low as) was determined as 5 µM. In addition, in assay [2] (SBHA), the “levels of cyclin D1” value is “decreased levels”; the “levels of cyclin-dependent kinase inhibitors p21 and p27” value is “increased levels”. The cell viability entry in the assay with Human MTC TT cells [3] is on record as “dose-dependant decrease”. Besides, in assay [4] (SBHA 0 to 50 μM), the cell growth entry is “dose-dependent growth suppression”. In addition, the “concentrations that produced growth inhibition” value in assay [4] fell in the range of 20 to 50 µM. In assay [5], the “levels of cyclin D1” value is recorded as “decreased levels”; the “levels of cyclin-dependent kinase inhibitors p21 and p27” value is recorded as “increased levels”. In addition, in the assay with Human MTC TT cells [6], the ASCL1 result is “concomitant decrease”; the “active form of Notch1” value is on record as “dose-dependent induction”; the “chromogranin A” value is “decrease”; the “cleaved poly ADP-ribose polymerase (PARP) and caspase-3” value is on record as “increase in protein levels”.
